Data from ChEMBL document CHEMBL3864160, “Discovery of fluorobenzimidazole HCV NS5A inhibitors” (Bioorg Med Chem Lett, 2016).

How the values were obtained:
[1] = Inhibition of Hepatitis C virus genotype 1a H77 replicon NS5A transfected in human HuH7 cells assessed as decrease in replication of viral replicon after 4 days by luciferase reporter gene assay; format: cell-based, Hepatitis C virus (isolate H77); details: Huh-7, 96 h
[2] = Inhibition of Hepatitis C virus genotype 1a H77 replicon NS5A transfected in human HuH7 cells assessed as decrease in replication of viral replicon in presence of 40% human plasma after 4 days by luciferase reporter gene assay; format: cell-based, Hepatitis C virus (isolate H77); details: Huh-7, Plasma, 96 h
[3] = Inhibition of Hepatitis C virus genotype 1b Con1 replicon NS5A transfected in human HuH7 cells assessed as decrease in replication of viral replicon after 4 days by luciferase reporter gene assay; format: cell-based, Hepatitis C virus (isolate Con1); details: Huh-7, 96 h
[4] = Inhibition of Hepatitis C virus genotype 1b Con1 replicon NS5A transfected in human HuH7 cells assessed as decrease in replication of viral replicon in presence of 40% human plasma after 4 days by luciferase reporter gene assay; format: cell-based, Hepatitis C virus (isolate Con1); details: Huh-7, Plasma, 96 h
[5] = Inhibition of Hepatitis C virus genotype 2a replicon NS5A transfected in human HuH7 cells assessed as decrease in replication of viral replicon after 4 days by luciferase reporter gene assay; format: cell-based, Hepatitis C virus subtype 2a; details: Huh-7, 96 h
[6] = Inhibition of Hepatitis C virus genotype 2b replicon NS5A transfected in human HuH7 cells assessed as decrease in replication of viral replicon after 4 days by luciferase reporter gene assay; format: cell-based, Hepatitis C virus subtype 2b; details: Huh-7, 96 h
[7] = Inhibition of Hepatitis C virus genotype 3a replicon NS5A transfected in human HuH7 cells assessed as decrease in replication of viral replicon after 4 days by luciferase reporter gene assay; format: cell-based, Hepatitis C virus subtype 3a; details: Huh-7, 96 h
[8] = Inhibition of Hepatitis C virus genotype 4a replicon NS5A transfected in human HuH7 cells assessed as decrease in replication of viral replicon after 4 days by luciferase reporter gene assay; format: cell-based, Hepatitis C virus subtype 4a; details: Huh-7, 96 h
[9] = Inhibition of Hepatitis C virus genotype 6a replicon NS5A transfected in human HuH7 cells assessed as decrease in replication of viral replicon after 4 days by luciferase reporter gene assay; format: cell-based, Hepatitis C virus subtype 6a; details: Huh-7, 96 h
[10] = Half life in CD1 mouse at 3 mg/kg, iv after 0.1 to 24 hrs; format: ADME, organism-based; details: in vivo
[11] = Plasma clearance in CD1 mouse at 3 mg/kg, iv after 0.1 to 24 hrs; format: ADME, organism-based
[12] = Cmax in CD1 mouse at 3 mg/kg, po after 0.25 to 24 hrs; format: ADME, organism-based; design: dose 3 mg/kg, route oral; details: in vivo
[13] = AUC in CD1 mouse at 3 mg/kg, po after 0.25 to 24 hrs; format: ADME, organism-based; design: time upper 24 hr, dose 3 mg/kg, time lower 0.25 hr, route oral; details: in vivo
[14] = Oral bioavailability in CD1 mouse at 3 mg/kg after 0.25 to 24 hrs; format: ADME, organism-based; details: in vivo
[15] = system: Hepatitis C virus (isolate H77); assay: Ratio of EC50 for Hepatitis C virus genotype 1a H77 replicon NS5A in presence of 40% human plasma to EC50 for Hepatitis C virus genotype 1a H77 replicon NS5A in absence of 40% human plasma
[16] = Inhibition of Hepatitis C virus genotype 1a H77 replicon NS5A M28T mutant transfected in human HuH7 cells assessed as decrease in replication of viral replicon after 4 days by luciferase reporter gene assay; format: cell-based, Hepatitis C virus (isolate H77); details: Huh-7, 96 h
[17] = Inhibition of Hepatitis C virus genotype 1a H77 replicon NS5A Q30R mutant transfected in human HuH7 cells assessed as decrease in replication of viral replicon after 4 days by luciferase reporter gene assay; format: cell-based, Hepatitis C virus (isolate H77); details: Huh-7, 96 h
[18] = system: Hepatitis C virus (isolate H77); assay: Resistance ratio of EC50 for Hepatitis C virus genotype 1a H77 replicon NS5A M28T mutant to EC50 for Hepatitis C virus genotype 1a H77 replicon NS5A
[19] = system: Hepatitis C virus (isolate H77); assay: Resistance ratio of EC50 for Hepatitis C virus genotype 1a H77 replicon NS5A Q30R mutant to EC50 for Hepatitis C virus genotype 1a H77 replicon NS5A
[20] = system: Hepatitis C virus (isolate H77); assay: Resistance ratio of EC50 for Hepatitis C virus genotype 1a H77 replicon NS5A Y93C mutant to EC50 for Hepatitis C virus genotype 1a H77 replicon NS5A
[21] = system: Hepatitis C virus (isolate H77); assay: Resistance ratio of EC50 for Hepatitis C virus genotype 1a H77 replicon NS5A Y93H mutant to EC50 for Hepatitis C virus genotype 1a H77 replicon NS5A
[22] = system: Hepatitis C virus (isolate Con1); assay: Ratio of EC50 for Hepatitis C virus genotype 1b Con1 replicon NS5A in presence of 40% human plasma to EC50 for Hepatitis C virus genotype 1b Con1 replicon NS5A in absence of 40% human plasma
[23] = Cmax in Sprague-Dawley rat at 3 mg/kg, po administered via gavage after 0.25 to 24 hrs; format: ADME, organism-based; design: dose 3 mg/kg, route oral; details: in vivo
[24] = AUC in Sprague-Dawley rat at 3 mg/kg, po administered via gavage after 0.25 to 24 hrs; format: ADME, organism-based; design: time upper 24 hr, dose 3 mg/kg, time lower 0.25 hr, route oral; details: in vivo
[25] = Half life in CD1 mouse at 15 mg/kg, po after 0.25 to 24 hrs; format: ADME, organism-based; details: in vivo
[26] = Half life in beagle dog at 2.5 mg/kg, po administered via gavage after 0.25 to 24 hrs; format: ADME, organism-based, Canis lupus familiaris; details: in vivo
[27] = Cmax in CD1 mouse at 15 mg/kg, po after 0.25 to 24 hrs; format: ADME, organism-based; design: dose 15 mg/kg, route oral; details: in vivo
[28] = Cmax in beagle dog at 2.5 mg/kg, po administered via gavage after 0.25 to 24 hrs; format: ADME, organism-based, Canis lupus familiaris; design: dose 2.5 mg/kg, route oral; details: in vivo
[29] = AUC in CD1 mouse at 15 mg/kg, po after 0.25 to 24 hrs; format: ADME, organism-based; design: time lower 0.25 hr, dose 15 mg/kg, time upper 24 hr, route oral; details: in vivo
[30] = AUC in beagle dog at 2.5 mg/kg, po administered via gavage after 0.25 to 24 hrs; format: ADME, organism-based, Canis lupus familiaris; design: dose 2.5 mg/kg, time 0.25-24 hr, route oral; details: in vivo
[31] = Half life in CD1 mouse at 3 mg/kg, po after 0.25 to 24 hrs; format: ADME, organism-based; details: in vivo

Row | Structure (SMILES) | EC50 [1] | EC50 [2] | EC50 [3] | EC50 [4] | EC50 [5] | EC50 [6] | EC50 [7] | EC50 [8] | EC50 [9] | Cmax [12] | AUC [13] | EC50 [16] | EC50 [17] | Ratio EC50 [18] | Ratio EC50 [19] | Ratio EC50 [20] | Ratio EC50 [21] | also measured
1 | COC(=O)N[C@H](C(=O)N1CCC[C@H]1c1nc2c(Cl)c([C@H]3CC[C@H](c4ccc5[nH]c([C@@H]6CCCN6C(=O)[C@@H](NC(=O)OC)C(C)C)nc5c4Cl)N3c3ccc(C(C)(C)C)cc3)ccc2[nH]1)C(C)C | 0.034 nM | 1.85 nM | 0.013 nM | 0.731 nM | 1.83 nM | 0.038 nM | 0.037 nM | 0.01 nM | 0.59 nM | – | – | – | – | – | – | – | – | –
2 | COC(=O)N[C@H](C(=O)N1CCC[C@H]1C(=O)Nc1ccc([C@H]2CC[C@@H](c3ccc(NC(=O)[C@@H]4CCCN4C(=O)[C@@H](NC(=O)OC)C(C)C)cc3)N2c2ccc(C(C)(C)C)cc2)cc1)C(C)C | – | – | – | – | – | – | – | – | – | 570 ng/mL | 11000 ng·h/mL | – | – | – | – | – | – | half-life [10]: 11 h; clearance [11]: 1.83 mL/min/kg; bioavailability [14]: 42%
3 | COC(=O)N[C@H](C(=O)N1CCC[C@H]1c1nc2cc([C@H]3CC[C@H](c4cc5nc([C@@H]6CCCN6C(=O)[C@@H](NC(=O)OC)C(C)C)[nH]c5cc4F)N3c3ccc(C(C)(C)C)cc3)c(F)cc2[nH]1)C(C)C | 0.002 to 0.008 nM | 0.216 nM | 0.007 nM | 0.096 nM | 0.098 nM | 0.009 nM | 0.008 nM | 0.008 nM | 0.015 nM | – | – | 0.004 nM | 0.005 nM | 2 | 3 | 3 | 30 | Ratio EC50 [15]: 15 to 30; Ratio EC50 [22]: 15 to 30
4 | COC(=O)N[C@H](C(=O)N1CCC[C@H]1c1nc2c(F)c([C@H]3CC[C@H](c4ccc5[nH]c([C@@H]6CCCN6C(=O)[C@@H](NC(=O)OC)C(C)C)nc5c4F)N3c3ccc(C(C)(C)C)cc3)ccc2[nH]1)C(C)C | 0.022 nM | 0.823 nM | 0.01 nM | 0.211 nM | 0.612 nM | 0.009 nM | 0.02 nM | 0.007 nM | 0.114 nM | – | – | – | – | – | – | – | – | –
5 | COC(=O)N[C@H](C(=O)N1CCC[C@H]1c1nc2c(C)c([C@H]3CC[C@H](c4ccc5[nH]c([C@@H]6CCCN6C(=O)[C@@H](NC(=O)OC)C(C)C)nc5c4C)N3c3ccc(C(C)(C)C)cc3)ccc2[nH]1)C(C)C | 0.01 nM | 0.52 nM | 0.01 nM | 0.557 nM | 0.594 nM | 0.025 nM | 0.02 nM | 0.005 nM | 0.132 nM | – | – | – | – | – | – | – | – | –
6 | COC(=O)N[C@H](C(=O)N1CCC[C@H]1c1nc2cc([C@H]3CC[C@H](c4ccc5[nH]c([C@@H]6CCCN6C(=O)[C@@H](NC(=O)OC)C(C)C)nc5c4)N3c3cc(F)c(N4CCCCC4)c(F)c3)ccc2[nH]1)C(C)C | 0.003 to 0.006 nM | 0.154 nM | 0.006 nM | 0.261 nM | 0.013 nM | 0.007 nM | 0.009 nM | 0.005 nM | 0.007 nM | 220 ng/mL | 1800 ng·h/mL | 0.01 nM | 0.025 nM | 3 | 8 | 6 | 163 | Cmax [23]: 50 ng/mL; AUC [24]: 30 ng·h/mL; half-life [25]: 3.2 h; half-life [26]: 2.8 h; Cmax [27]: 930 ng/mL; Cmax [28]: 200 ng/mL; AUC [29]: 9250 ng·h/mL; AUC [30]: 1230 ng·h/mL; half-life [31]: 3.9 h
